In assay [1] the target is human STING (hSTING) HAQ variant in THP1-Dual HAQ Cells (Homo sapiens, UniProt Q86WV6, G230A/H232R/R293Q/R71H). Put plainly: STING cellular assay in THP1-Dual HAQ cells (ISG54 Lucia luciferase reporter, QUANTI-Luc). For orientation: In a reporter assay the amount or activity of a reporter protein is the signal.
In assay [2] the target is human STING (hSTING) R232 variant in THP1-Dual KI-hSTING-R232 Cells (Homo sapiens, UniProt Q86WV6, H232R). Briefly: STING cellular assay in THP1-Dual KI-hSTING-R232 cells (ISG54 Lucia luciferase reporter, QUANTI-Luc).

SMILES strings stand for the structures. Counter-ions that a name gives are not always drawn.

As a reminder, the EC50 is the concentration that produces a half-maximal response. High values mean a need for much substance, low ones an effect from little substance.

Sequence of human STING (hSTING) HAQ variant in THP1-Dual HAQ Cells (Q86WV6 whole entry R71H/G230A/H232R/R293Q): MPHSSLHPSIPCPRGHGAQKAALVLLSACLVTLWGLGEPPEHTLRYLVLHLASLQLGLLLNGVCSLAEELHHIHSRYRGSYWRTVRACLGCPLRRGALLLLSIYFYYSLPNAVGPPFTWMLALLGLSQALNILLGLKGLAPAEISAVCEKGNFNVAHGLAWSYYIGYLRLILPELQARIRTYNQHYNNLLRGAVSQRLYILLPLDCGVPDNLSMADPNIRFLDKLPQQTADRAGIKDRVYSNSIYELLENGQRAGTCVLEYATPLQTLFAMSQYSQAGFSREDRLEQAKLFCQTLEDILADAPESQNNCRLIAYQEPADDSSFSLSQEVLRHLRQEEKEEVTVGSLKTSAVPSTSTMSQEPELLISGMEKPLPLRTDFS
Sequence of human STING (hSTING) R232 variant in THP1-Dual KI-hSTING-R232 Cells (Q86WV6 whole entry H232R): as the sequence (Q86WV6 whole entry R71H/G230A/H232R/R293Q) above, with H71R, A230G, Q293R counted along it

Take `CCn1nc(C)cc1C(=O)Nc1nc2cc(C(N)=O)cnc2n1C/C=C/Cn1c2nc(-c3cc(C)nn3CC)ncc2c2cc(C(N)=O)cc(OCCCC3CCN(C(=O)OC(C)(C)C)CC3)c21` [Example 7-AA, tert-butyl (E)-4-(3-((6-carbamoyl-9-(4-(6-carbamoyl-2-(1-ethyl-3-methyl-1H-pyrazole-5-carboxamido)-3H-imidazo[4,5-b]pyridin-3-yl)but-2-en-1-yl)-2-(1-ethyl-3-methyl-1H-pyrazol-5-yl)-9H-pyrimido[4,5-b]indol-8-yl)oxy)propyl)piperidine-1-carboxylate]: the EC50 in assay [1] was 28 nM; in assay [2], 1 nM.
For `CCn1nc(C)cc1C(=O)Nc1nc2cc(C(N)=O)cnc2n1C/C=C/Cn1c2nc(-c3cc(C)nn3CC)ncc2c2cc(C(N)=O)cc(OCCCCN(C)C(=O)OC(C)(C)C)c21` [Example 3-AA, tert-butyl (E)-(4-((6-carbamoyl-9-(4-(6-carbamoyl-2-(1-ethyl-3-methyl-1H-pyrazole-5-carboxamido)-3H-imidazo[4,5-b]pyridin-3-yl)but-2-en-1-yl)-2-(1-ethyl-3-methyl-1H-pyrazol-5-yl)-9H-pyrimido[4,5-b]indol-8-yl)oxy)butyl)(methyl)carbamate] the same measures were 4.1 nM and 0.52 nM.
Regarding `CCn1nc(C)cc1C(=O)Nc1nc2cc(C(N)=O)cnc2n1C/C=C/Cn1c2nc(-c3cc(C)nn3CC)ncc2c2cc(C(N)=O)cc(OCCCC3CCNCC3)c21` [Example 7-AB], the EC50 in assay [1] worked out at 305 nM; in assay [2], 16 nM.
As to `CCn1nc(C)cc1C(=O)Nc1nc2cc(C(N)=O)cnc2n1C/C=C/Cn1c2nc(-c3cc(C)nn3CC)ncc2c2cc(C(N)=O)cc(OCCCN(C)C(=O)CON)c21` [Example 1-AC], the EC50 is 34 nM in assay [1] and 3.6 nM in assay [2].
The matching figures for `CCn1nc(C)cc1C(=O)Nc1nc2cc(C(N)=O)cnc2n1C/C=C/Cn1c2nc(-c3cc(C)nn3CC)ncc2c2cc(C(N)=O)cc(OCCCC3CN(C(=O)OC(C)(C)C)C3)c21` [Example 5-AA, tert-butyl (E)-3-(3-((6-carbamoyl-9-(4-(6-carbamoyl-2-(1-ethyl-3-methyl-1H-pyrazole-5-carboxamido)-3H-imidazo[4,5-b]pyridin-3-yl)but-2-en-1-yl)-2-(1-ethyl-3-methyl-1H-pyrazol-5-yl)-9H-pyrimido[4,5-b]indol-8-yl)oxy)propyl)azetidine-1-carboxylate]: 39 nM and 1.6 nM.
For `CCn1nc(C)cc1C(=O)Nc1nc2cc(C(N)=O)cnc2n1C/C=C/Cn1c2nc(-c3cc(C)nn3CC)ncc2c2cc(C(N)=O)cc(OCCCC3CNC3)c21` [Example 5-AB, (E)-8-(3-(azetidin-3-yl)propoxy)-9-(4-(6-carbamoyl-2-(1-ethyl-3-methyl-1H-pyrazole-5-carboxamido)-3H-imidazo[4,5-b]pyridin-3-yl)but-2-en-1-yl)-2-(1-ethyl-3-methyl-1H-pyrazol-5-yl)-9H-pyrimido[4,5-b]indole-6-carboxamide] the same measures were 862 nM and 27 nM.
Consider `CCn1nc(C)cc1C(=O)Nc1nc2cc(C(N)=O)cnc2n1C/C=C/Cn1c2nc(-c3cc(C)nn3CC)ncc2c2cc(C(N)=O)cc(OCCC3CN(C(=O)OC(C)(C)C)C3)c21` [Example 4-AA, tert-butyl (E)-3-(2-((6-carbamoyl-9-(4-(6-carbamoyl-2-(1-ethyl-3-methyl-1H-pyrazole-5-carboxamido)-3H-imidazo[4,5-b]pyridin-3-yl)but-2-en-1-yl)-2-(1-ethyl-3-methyl-1H-pyrazol-5-yl)-9H-pyrimido[4,5-b]indol-8-yl)oxy)ethyl)azetidine-1-carboxylate], for which the EC50 was 4.8 nM in assay [1] and 0.78 nM in assay [2].
For `CCn1nc(C)cc1C(=O)Nc1nc2cc(C(N)=O)cnc2n1C/C=C/Cn1c2nc(-c3cc(C)nn3CC)ncc2c2cc(C(N)=O)cc(OCCCN(C)C(=O)OC(C)(C)C)c21` [Example 1-AA] the same measures were 3.4 nM and 0.58 nM.
As for `CCn1nc(C)cc1C(=O)Nc1nc2cc(C(N)=O)cnc2n1C/C=C/Cn1c2nc(-c3cc(C)nn3CC)ncc2c2cc(C(N)=O)cc(OCCC3CCNCC3)c21` [Example 6-AB], the EC50 in assay [1] came to 674 nM; in assay [2] it was 29 nM.
The matching figures for `CCn1nc(C)cc1C(=O)Nc1nc2cc(C(N)=O)cnc2n1C/C=C/Cn1c2nc(-c3cc(C)nn3CC)ncc2c2cc(C(N)=O)cc(OCCC3CCN(C(=O)OC(C)(C)C)CC3)c21` [Example-6-AA, tert-butyl (E)-4-(2-((6-carbamoyl-9-(4-(6-carbamoyl-2-(1-ethyl-3-methyl-1H-pyrazole-5-carboxamido)-3H-imidazo[4,5-b]pyridin-3-yl)but-2-en-1-yl)-2-(1-ethyl-3-methyl-1H-pyrazol-5-yl)-9H-pyrimido[4,5-b]indol-8-yl)oxy)ethyl)piperidin-1-carboxylate]: 49 nM and 0.9 nM.
For `CCn1nc(C)cc1C(=O)Nc1nc2cc(C(N)=O)cnc2n1C/C=C/Cn1c2nc(-c3cc(C)nn3CC)ncc2c2cc(C(N)=O)cc(OCCC3CNC3)c21` [Example 4-AB, (E)-8-(2-(azetidin-3-yl)ethoxy)-9-(4-(6-carbamoyl-2-(1-ethyl-3-methyl-1H-pyrazole-5-carboxamido)-3H-imidazo[4,5-b]pyridin-3-yl)but-2-en-1-yl)-2-(1-ethyl-3-methyl-1H-pyrazol-5-yl)-9H-pyrimido[4,5-b]indole-6-carboxamide] the same measures were 1040 nM and 30 nM.
Turning to `CCn1nc(C)cc1C(=O)Nc1nc2cc(C(N)=O)cnc2n1C/C=C/Cn1c2nc(-c3cc(C)nn3CC)ncc2c2cc(C(N)=O)cc(OCCCCNC)c21` [Example 3-AB-HCl, (E)-9-(4-(6-carbamoyl-2-(1-ethyl-3-methyl-1H-pyrazole-5-carboxamido)-3H-imidazo[4,5-b]pyridin-3-yl)but-2-en-1-yl)-2-(1-ethyl-3-methyl-1H-pyrazol-5-yl)-8-(4-(methylamino)butoxy)-9H-pyrimido[4,5-b]indole-6-carboxamide hydrochloride], the values for the EC50 in assay [1] and in assay [2] were 640 nM and 23 nM, respectively.
For `CCn1nc(C)cc1C(=O)Nc1nc2cc(C(N)=O)cnc2n1C/C=C/Cn1c2nc(-c3cc(C)nn3CC)ncc2c2cc(C(N)=O)cc(OCCCN3CCN(C(=O)OC(C)(C)C)CC3)c21` [Example 2-AA, tert-butyl (E)-4-(3-((6-carbamoyl-9-(4-(6-carbamoyl-2-(1-ethyl-3-methyl-1H-pyrazole-5-carboxamido)-3H-imidazo[4,5-b]pyridin-3-yl)but-2-en-1-yl)-2-(1-ethyl-3-methyl-1H-pyrazol-5-yl)-9H-pyrimido[4,5-b]indol-8-yl)oxy)propyl)piperazine-1-carboxylate] the same measures were 2.4 nM and 0.46 nM.
On to `CCn1nc(C)cc1C(=O)Nc1nc2cc(C(N)=O)cnc2n1C/C=C/Cn1c2nc(-c3cc(C)nn3CC)ncc2c2cc(C(N)=O)cc(OCCCN3CCN(C(=O)CON)CC3)c21` [Example 2-AC, (E)-8-(3-(4-(2-(aminooxy)acetyl)piperazin-1-yl)propoxy)-9-(4-(6-carbamoyl-2-(1-ethyl-3-methyl-1H-pyrazole-5-carboxamido)-3H-imidazo[4,5-b]pyridin-3-yl)but-2-en-1-yl)-2-(1-ethyl-3-methyl-1H-pyrazol-5-yl)-9H-pyrimido[4,5-b]indole-6-carboxamide], for which the EC50 stood at 118 nM in assay [1] and 10 nM in assay [2].
For `CCn1nc(C)cc1C(=O)Nc1nc2cc(C(N)=O)cnc2n1C/C=C/Cn1c2nc(-c3cc(C)nn3CC)ncc2c2cc(C(N)=O)cc(OCCCN3CCNCC3)c21` [Example 2-AB-HCl, (E)-9-(4-(6-carbamoyl-2-(1-ethyl-3-methyl-1H-pyrazole-5-carboxamido)-3H-imidazo[4,5-b]pyridin-3-yl)but-2-en-1-yl)-2-(1-ethyl-3-methyl-1H-pyrazol-5-yl)-8-(3-(piperazin-1-yl)propoxy)-9H-pyrimido[4,5-b]indole-6-carboxamide hydrochloride] the same measures were 565 nM and 11 nM.
For `CCn1nc(C)cc1C(=O)Nc1nc2cc(C(N)=O)cnc2n1C/C=C/Cn1c2nc(-c3cc(C)nn3CC)ncc2c2cc(C(N)=O)cc(OCCCNC)c21` [Example 1-AB, (E)-9-(4-(6-carbamoyl-2-(1-ethyl-3-methyl-1H-pyrazole-5-carboxamido)-3H-imidazo[4,5-b]pyridin-3-yl)but-2-en-1-yl)-2-(1-ethyl-3-methyl-1H-pyrazol-5-yl)-8-(3-(methylamino)propoxy)-9H-pyrimido[4,5-b]indole-6-carboxamide], the EC50 in assay [1] amounted to 355 nM; in assay [2] it was 6.2 nM.

(Values after US12637480B2, “Heterocyclic compounds as sting modulators” (BEIGENE, LTD., priority 2020, dated 2026).)
